The results in this text go back to a melting point compilation (Tetko et al.; mined from patent text by program, amines drawn as free bases though some values may be those of a salt).

Non-standard residues stand in square brackets, D forms with d. Residues, ends and D or L forms follow the SMILES beside them. *: point of attachment. Tos = Cc1ccc(S(=O)(=O)*)cc1; Sar = CNCC(=O)O A value given as a limit tells only on which side of the number the result lay.

As usually defined, the melting point is the temperature of the solid-liquid transition. As to `CCOC(=O)c1cc(=O)c(Sc2ccccc2)co1`, the melting point is 79 to 81 °C. The compound `CC(C)c1nc(CN)n(C)c1Sc1cc(Cl)cc(Cl)c1` returned a melting point of 86 to 87 °C.

Regarding `OCC1OC(n2ccnn2)C(O)C1O` (stereo not given), the melting point was in the range of 123 to 125 °C. In turn, `CC1CC(=O)c2cc(Cl)cc(Cl)c2O1` (stereo not given) had a melting point of 98 to 102 °C. The same measure for `Cc1c(C(=O)O)cnn1-c1ccc(F)cc1F`: 183 to 184 °C; for `CC(C)OCC1(C(C)(F)F)c2cc(C#N)ccc2Nc2ncc(Cl)cc21` (stereo not given): 79 to 81 °C; for `CCOC(=O)c1ccc(CC(=O)Nc2csc3nc(C(=O)NCc4cccc(OC)c4)[nH]c(=O)c23)cc1`: 218 to 219 °C. The same measure for `Cn1cc(Br)nc(Br)c1=O`: 94 to 95 °C. Take `COc1ccc(-c2[nH]nc3c2C(=O)c2c(NC(=O)NNC(=O)c4ccccc4N)cccc2-3)cc1`: the melting point stood at 257 °C. As for `NCC1Cc2cc(C(F)(F)F)cc(-c3cc(F)ccc3F)c2O1` (stereo not given), the melting point was > 250 °C. `Fc1cccc2c(NCCc3cccs3)ccnc12` yielded a melting point of 157 to 158 °C.

In turn, `O=C(O)CCCCCCCCCC=Cc1ccccc1` had a melting point of 27 to 27.5 °C. For `Cc1c(OC(C)(C)C(=O)O)ccc(OCCCC#Cc2ccc(OC(F)(F)F)cc2)c1F` the value was 116 to 118 °C; for `CC(=O)N1CCC1CC(=O)O` (stereo not given), 148 to 150 °C. `COc1cc(CC(=O)N[C@@H](COC(=O)C(C)(C)C)Cc2ccccc2)ccc1OCCN=[N+]=[N-]` displayed a melting point of 77 to 80 °C. The same measure for `CCCc1nc(C(C)(O)CC)c(C#N)n1C(c1ccccc1)(c1ccccc1)c1ccccc1` (stereo not given): > 120 °C; for `CCN(CC)CCOc1cccc2c1c1cccc(F)c1n2Cc1ccccc1`: 60 to 60.5 °C. The compound `CC(C)n1nc(-c2c(-c3ccccc3)nn3ccc(OCCN4C[C@@H](C)O[C@@H](C)C4)cc23)ccc1=O` registered a melting point of 158 °C. The same measure for `CS(=O)(=O)CC(=O)c1ccc(Cl)cc1`: 132 to 137 °C; for `CC(C)(n1cncn1)C(O)(Cn1cncn1)c1ccc(F)cc1` (stereo not given): 156 to 158 °C. The same measure for `CCCC(=O)c1cnc2c(C)cccc2c1Nc1ccc(Cl)cc1Cl`: 169 to 170 °C; for `O=C(Cc1cncs1)c1ccc(Cl)cc1Cl`: 75 to 77 °C. `CC1(C)Oc2c(ccc(Cl)c2N)C1=O` had a melting point of 91.5 to 93.5 °C.

In turn, `OCC1CCn2c(nc3ccccc32)S1` (stereo not given) gave a melting point of 112 to 113 °C. `CC1=C(c2ccc(O)cc2)CCC(=O)N1` returned a melting point of 197 to 200 °C.

For `Cc1ccc(S(=O)(=O)N(C)CC(=O)N[C@@H](Cc2ccccc2)C(=O)O)cc1` (Tos-[Sar]-Phe-OH), the melting point fell in the range of 128 to 130 °C. Consider `OC1CCC(Nc2nc(Cl)nc(Cl)n2)CC1` (stereo not given), for which the melting point was 120 °C. The compound `Cc1ccccc1NNC1=NCCS1` registered a melting point of 126 to 127 °C. The same measure for `CN(CC(=O)O)C(=S)c1cc(-c2ccccc2)nc2ccccc12`: 228 to 230 °C. The same measure for `COc1ccc(C=CCO)cc1OC`: 70 to 71 °C; for `Cc1ccc2c(c1)C(=O)N(C)Cc1c(C#N)ncn1-2`: 252 °C. The same measure for `O=C(O)c1cn(C2COC2)c2c(Cl)c(F)c(F)cc2c1=O`: > 300 °C. The compound `Cc1cccc(-c2sc(N)nc2-c2ccnc(-c3ccc(OCCN4CCCC4)cc3)c2)n1` yielded a melting point of 150 °C. For `O=C(c1sccc1-n1cccc1)N1CCOCC1` the value was 100 °C; for `COC(=O)c1cccc2[nH]c(-c3ccc(Cl)cc3)c(C=O)c12`, 221 to 222 °C; for `COc1ccc(Cc2cnc(N)nc2N)c(OC)c1O`, 246 to 248 °C.

For the compound `COc1ccc(S(=O)(=O)n2ccc3ccnc(-c4ccc(O)cc4)c32)cc1`, the melting point fell in the range of 179 to 182 °C. The compound `O=C(O)C(=O)c1ccc(OCCCCCCOc2ccccc2)cc1` yielded a melting point of 121 to 122 °C.

`CCOc1c(C)c(N2CCN(c3ccc(F)cc3)CC2)c(C)c2c1OC(C)(C)C2` yielded a melting point of 163 to 165 °C. For `CC(=O)OC1(C(C)=O)C(C)CC2C3CCC4=CC(=O)C=CC4(C)C3=CCC21C` (stereo not given) the value was 230 to 233 °C. For `NC(=O)c1nn(-c2ccc3c(c2)OCO3)c2c1CCc1ccc(NC(=O)c3cc(Cl)ncc3Cl)cc1-2` the value was 292 to 293 °C; for `COc1cc(N2CCN(C[C@H](C)O)CC2)ccc1Nc1ncc2ccc(-c3cc(Cl)ccc3OC)n2n1`, 163 to 166 °C; for `CC(C)(c1ccc(OS(=O)(=O)c2ccccc2)cc1)c1ccc(OS(=O)(=O)c2ccccc2)cc1`, 92 to 93 °C. Consider `CCc1ccc(OCC(=O)N(Cc2nc(-c3cccnc3)no2)C(C)C)cc1`, for which the melting point is 87.9 to 89.4 °C. `COc1ccc(-n2c(=O)cc(C)c3c(=O)n(-c4ccccc4)[nH]c32)cc1` showed a melting point of 189 to 190 °C. Take `COC(=O)[C@@H]1C[C@H](NS(=O)(=O)c2ccccc2)C(=O)[C@H]2[C@@]1(C)CC[C@H]1C(=O)O[C@H](c3ccoc3)C[C@]21C`: the melting point was in the range of 271 to 273 °C. Compound `CCCCCCC(=S)SCCCC` registered a melting point of 46 to 47 °C. For `CCC1Oc2ccc(-c3nc4ccccn4c3C)cc2NC1=O` (stereo not given) the value was 216 to 217 °C; for `Clc1cccc(Nc2ncnc3[nH]nc(NCc4ccc(-c5cncs5)cc4)c23)c1`, 235 °C; for `CS(=O)(=O)c1ccc(-c2cnn(-c3ccc(F)c(F)c3)c(=O)c2OCCC2C=CCC2)cc1` (stereo not given), 126 to 127 °C. For `CNc1ncnc(NCc2c(F)cccc2Cl)c1N` the value was 210 to 213 °C; for `CC(C)Oc1c(C(=O)O)oc(C(=O)O)c1OC(C)C`, 131 to 132 °C. Compound `CCOC(=O)C(=CNc1nonc1C)C(=O)c1cc(F)c(F)c(F)c1F` showed a melting point of 88 to 92 °C.

In turn, `O=C1[C@@H](CCCO)O[C@H](c2ccccc2)c2ccccc2N1Cc1ccccc1` (relative stereo) returned a melting point of 59 to 62 °C. The compound `CCOC(=O)C1(C(C)C)OC2(O)C3CCCN3C(=O)C(C(C)C)N2C1=O` (stereo not given) showed a melting point of 103 to 104 °C. The same measure for `O=C1CC2CCCC3(C2)c2cccn2CCN13` (stereo not given): 130 to 132 °C. The same measure for `COc1cc([N+](=O)[O-])ccc1-c1sc(C)nc1C`: 123 to 125 °C; for `COc1nc2cc(Br)cc(CNC(=O)C(=O)O)c2nc1OC`: > 300 °C; for `Clc1ccc2nc(-c3cccs3)c(-c3ccncc3)n2n1`: 208 to 210 °C. The same measure for `Cc1sc2cc3ccccc3c(-c3ccc(O)c(C4CCCC4)c3)c2c1C`: 156 to 158 °C; for `CC(=O)N1CCN(c2ccc(C3CCS(=O)(=O)NC3)cc2)CC1` (stereo not given): 196 to 197 °C; for `c1ccc(Cc2nc3cnc4ccccc4c3s2)cc1`: 111 to 113 °C. `COC(C)c1nc(C(C)(C)O)c(C(=O)O)n1Cc1ccc(-c2ccccc2-c2nnn[nH]2)cc1` (stereo not given) had a melting point of 174 to 185 °C.

In turn, `Cc1c(C=O)cc2c(c1C)OCC2` returned a melting point of 60 °C. The same measure for `CN(C)CCCN(C)C(=O)c1cc([N+](=O)[O-])c[nH]1`: 118 to 120 °C; for `O=C(O)CC(NS(=O)(=O)c1ccc2ccccc2c1)c1ccccc1O` (stereo not given): 190 to 200 °C; for `COc1cccc(-c2nc(N)ncc2-c2ccc(=O)n(C)n2)c1`: 195 °C. For `COc1ccc(-c2[nH]nc3c2C(=O)c2c(NC(=O)CN4CCC(O)CC4)cccc2-3)cc1` the value was > 300 °C; for `COc1ccc(-c2c3c(cc4ccc(OCc5ccccc5)cc24)C(=O)NC3)cc1`, 213 to 216 °C; for `CN(C=O)c1ccc(F)c(Cl)c1`, 47 to 48 °C.

For the compound `Nc1cccc(Nc2nccc(-c3cccnc3)n2)c1`, the melting point fell in the range of 89 to 90 °C. `O=C(NCc1ccccc1Cl)c1ccc(Br)cc1` gave a melting point of 133 °C. As for `O=C(O)C1CCc2c(c(=O)c3cccnc3n2-c2cccc(Cl)c2)C1` (stereo not given), the melting point was 279 to 280 °C. `NS(=O)(=O)Oc1ccccc1Cl` showed a melting point of 62.5 to 63.5 °C. The same measure for `NCc1cccc(CNC(=O)C2Cc3ccccc3N2S(=O)(=O)c2ccc(-c3cccc(C(F)(F)F)c3)cc2)c1` (stereo not given): 116 °C; for `O=C1NCCN(NC(=O)c2cc(OCc3ccccc3)c(OCc3ccccc3)cn2)C1=O`: 231 °C; for `CCOC(=O)N1Cc2sc3ncn(CCN4CCN(c5ccccc5OC)CC4)c(=O)c3c2C1`: 153 to 155 °C.

For the compound `COc1cc2ncnc(NC3=CC(=O)C(c4ccccc4)=CC3=O)c2cc1OC`, the melting point lay within 200 to 205 °C. Compound `CC(=O)OC1CSC(Oc2cnccc2-c2c(C)noc2C)C(OC(C)=O)C1OC(C)=O` (stereo not given) showed a melting point of 150 to 155 °C. For `CC(Oc1ccc(Cl)cc1)(C(=O)O)C(F)(F)F` (stereo not given) the value was 141 to 142 °C.

Regarding `CCOC(=O)c1ncn2c1CN(C)C(=O)c1cc(C#N)ccc1-2`, the melting point turned out to be 184 °C.

`CN1C(=O)C(c2c[nH]c3ccccc23)=C(c2cn(C)c3ccccc23)C1=O`: the melting point fell in the range of 168 to 171 °C. Compound `Cc1cc2nc(O)c(-c3c(F)cc(F)cc3F)c(O)n2n1` registered a melting point of 304 °C.

In turn, `CC(=O)Oc1ccccc1C(=O)Nc1ccc2oc(C)nc2c1` registered a melting point of 169 to 171 °C. Regarding `CCOC1=CC(C)=C(C(=O)OC)C(C)(C)C1`, the melting point lay within 67 to 69 °C.

`CN1c2ccccc2-c2nc3ccc(Cl)cc3c3cccc1c23` gave a melting point of 226 to 228 °C. For `COC(=O)c1ccc(NC(=O)c2cc(C(C)C)c(C(C)C)s2)cc1` the value was 180 to 182 °C; for `COc1cccc(-n2nc(C(=O)O)c3csc(N)c3c2=O)c1`, 227 to 229 °C; for `O=C(O)CCSC1c2cccc(O)c2C(=O)c2c(O)cccc21`, 152 to 153 °C. The same measure for `COc1cccc(CNS(=O)(=O)c2ccc(C(CC3CCCC3)C(=O)Nc3nc4ccc(OC)nc4s3)cc2)c1` (stereo not given): 179 to 181 °C.
